According to patent US20120316192A1, “SUBSTITUTED INDOLO [2,3-A] QUINOLIZINES” (priority 2011, published 2012):

Key:
HCT116 cells = test: Apo-ONE homogeneous caspase-3/7 assay (apoptosis); format: cell-based, human; settings: HCT116, 42 h of treatment
Description: (§1) HeLa human cervical carcinoma cell line, the human breast cancer cell line MCF7, the African green monkey kidney cell line BS-C-1 and the human colorectal carcinoma cell lines HCT116 and SW480 were maintained in Dulbecco's Modified Eagle's medium (DMEM, PAA, Pasching Austria). The colorectal cell line HT29 was cultured in McCoy's 5A medium (PAA, Pasching, Austria). The prostate carcinoma cells PC3 and the osteosarcoma cells Saos2 were cultured in RPMI medium (PAA, Pasching Austria). All media were supplemented with 10% fetal calf serum, L-glutamine, penicillin and streptomycin. All cell lines were maintained at 37° C. in a 5% CO2 humidified atmosphere.
(§2) Therefore we measured the caspase-3/7 activity in different cell lines with the Apo-ONE® homogeneous caspase-3/7 assay.
(§3) Caspase-3/7 activities were determined using the Apo-ONE® homogeneous caspase-3/7 assay (Promega, Mannheim Germany) according to the manufacturer's protocol. Briefly, cells were plated in quadruplicates in 384-well cell culture plate. After 24 hours cells were exposed for 42 hours to the compounds at different concentrations. Control cells were treated with 0.5% DMSO or staurosporine (STS). Subsequently cells were lysed with a lysis buffer containing the caspase-3/7 substrate Z-DEVD-R110 and were incubated at room temperature until further analysis. The fluorescence was detected with the TECAN Inifinite® M200 plate reader at excitation/emission wavelength 485/520 nm. The blank value was subtracted from each value and the relative caspase-3/7 activity was calculated compared to the DMSO treated cells.
(§4) These findings correlate with our results from the cell viability assays for these indoloquinolizine.

HeLa cells [1] = test: Apo-ONE homogeneous caspase-3/7 assay (apoptosis); format: cell-based, human; settings: 42 h of treatment
Description: as §1, §2, §3, §4

[2] = test system: colorectal cell line HT29; test: WST-1 cell viability and proliferation assay; format: cell-based; settings: HT29, 3.125 up to 50 μM, 19 h
Description: as §1
(§5) The cell proliferation was determined as a function of the metabolic activity by means of the cell proliferation reagent WST-1 (Roche, Mannheim Germany). Cells were plated in quadruplicates into the wells of 96 well plates and were allowed to attach for 24 hours. Cells were then treated with different concentrations of the compounds for 19 hours. All samples contained 0.5% DMSO. Control cells were treated with 0.5% DMSO or 20 μM doxorubicin or 1 μM staurosporine. After the treatment the WST-1 reagent was added to the cells according to the manufacturer's protocol. The absorbance was measured with the TECAN Inifinite® M200 plate reader at 450/690 nm. The blank value was subtracted from each value and the percentage of viable cells was determined compared to the DMSO treated cells.
(§6) The biological activity of the indoloquinolizines was evaluated in different cell lines by means of WST-1 assay. Cells were treated with different compound concentrations (3.125 up to 50 μM) for 19 h. In HeLa cells the (−)-enantiomers of 1-01 and 1-04 caused the most dramatic decrease in cell proliferation rate with increasing concentrations (FIG. 3). At 50 μM concentration (−)-1-01 reduced the cell proliferation rate to 60% and (−)-1-04 to 67% (FIG. 3).

osteosarcoma cells Saos2 = test: WST-1 cell viability and proliferation assay; format: cell-based; settings: Saos2, 3.125 up to 50 μM, 19 h
Description: as §1, §5, §6

[3] = test system: prostate carcinoma cells PC3; test: WST-1 cell viability and proliferation assay; format: cell-based; settings: PC3, 3.125 up to 50 μM, 19 h
Description: as §1, §5, §6

all cell lines but Saos2 = test: Apo-ONE homogeneous caspase-3/7 assay (apoptosis), summary statement; format: cell-based; settings: all cell lines but Saos2, 42 h
Description: as §1, §2, §3, §4

HeLa cells [4] = test: WST-1 cell viability and proliferation assay; format: cell-based, human; settings: 19 h; for cell proliferation rate (percent of DMSO control): 50 μM; for IC50: calculated from two and three experiments respectively
Description: as §1, §5, §6

HT29 cell line = test: Apo-ONE homogeneous caspase-3/7 assay (apoptosis); format: cell-based; settings: HT29, 42 h of treatment
Description: as §1, §2, §3, §4

Saos2 cells = test: Apo-ONE homogeneous caspase-3/7 assay (apoptosis); format: cell-based; settings: Saos2, 42 h of treatment
Description: as §1, §2, §3, §4

PC3 cell line = test: Apo-ONE homogeneous caspase-3/7 assay (apoptosis); format: cell-based; settings: PC3, 42 h of treatment
Description: as §1, §2, §3, §4

HeLa cells [5] = test: FACS analysis of the cell cycle (propidium iodide DNA content); format: cell-based, human; settings: for cells in G1 phase / cells in G2/M phase: 24 h after treatment; for mitotic index: DMSO control 0.16
Description: HeLa human cervical carcinoma cell line, the human breast cancer cell line MCF7, and the human colorectal carcinoma cell line SW480 were maintained in Dulbecco's Modified Eagle's medium (DMEM, PAA, Pasching Austria). The colorectal cell line HT29 was cultured in McCoy's 5A medium (PAA, Pasching, Austria). DMEM medium was supplemented with 10% fetal calf serum, sodium pyruvate, non-essential amino acids, penicillin and streptomycin, McCoy's 5A medium was supplemented with 10% fetal calf serum, penicillin and streptomycin. All cell lines were cultured at 37° C. in a 5% CO2 humidified atmosphere. Further, fluorescent activated cell sorting (FACS) was used successfully to analyze the cell cycle and mitotic arrest under the influence of indoloquinolizines. HeLa cells were fixed and stained for FACS analysis 24 h after compound treatment. Cells were trypsinized and combined with any floating cells, pelleted, and resuspended in 1 ml PBS. Ice cold ethanol (70%) was added, and samples were incubated at −20° C. until analysis. After fixation the cells were pelleted, resuspended in 500 μl staining solution (50 μg/ml propidium iodide, 0.1 mg/ml RNase A, 0.05% Triton X-100) and incubated for 40 min at 37° C. 3 ml PBS were added; the cells were pelleted again and resuspended in 500 μl PBS. The DNA content was measured with a Becton Dickinson LSRII and analyzed with FlowJo 7.5 software. The cell cycle of compound treated HeLa cells was analyzed by fluorescence activated cell sorting (FIG. 1). […] A similar distribution is given in (−)-1-01 treated cells (FIGS. 1c and 1d); here 9% are in G1 and 38% in G2/M phase (25 μM) respectively; 8% in G1 and 40% in G2/M phase (50 μM). This means that the mitotic index is increased by more than two fold (from 0.16 to 0.38 respectively 0.40), indicating a mitotic arrest after compound treatment.

Row | Structure (SMILES) | activation of caspase-3/7 (HCT116 cells) | activation of caspase-3/7 (HeLa cells [1]) | reduction in cell viability [2] | decrease in the proliferation rate compared with HeLa (osteosarcoma cells Saos2) | reduction in cell viability [3] | impact on the apoptosis (all cell lines but Saos2) | cell proliferation rate (percent of DMSO control) (HeLa cells [4]) | IC50 (HeLa cells [4]; Homo sapiens) | caspase-3/7 activity detected (HT29 cell line) | activation of caspase-3/7 (Saos2 cells) | caspase-3/7 activity detected (PC3 cell line) | IC50 (HeLa cells [4]) | cells in G1 phase (HeLa cells [5]; 25 μM) | cells in G2/M phase (HeLa cells [5]; 25 μM) | mitotic index (HeLa cells [5]; 25 μM) | cells in G1 phase (HeLa cells [5]; 50 μM) | cells in G2/M phase (HeLa cells [5]; 50 μM) | mitotic index (HeLa cells [5]; 50 μM)
1 | COC(=O)C1=CC(C(=O)c2ccccc2O)=CN2CCc3c([nH]c4ccc(OC)cc34)C12C(=O)OC (single isomer, unassigned; (-)) [(−)-1-04, Dimethyl-3-(2-hydroxybenzoyl)-9-methoxy-6,7,12,12b-tetrahydro-indolo[2,3-a]quinolizine-1,12b-dicarboxylate] | concentration dependent increase | concentration dependent increase | only a slight reduction in cell viability | more dramatic | only a slight reduction in cell viability | did not have any impact on the apoptosis | 67% | 15.7 ± 1.43 µM | only at the 50 μM concentration | concentration dependent increase | only at the 50 μM concentration |  |  |  |  |  |  | 
2 | COC(=O)C1=CC(C(=O)c2ccccc2O)=CN2CCc3c([nH]c4ccccc34)C12C(=O)OC (single isomer, unassigned; (-)) [(−)-1-01, Dimethyl-3-(2-hydroxybenzoyl)-6,7,12,12b-tetrahydroindolo[2,3a]quinolizine-1,12b-dicarboxylate] | concentration dependent increase | concentration dependent increase | only a slight reduction in cell viability | more dramatic | only a slight reduction in cell viability | did not have any impact on the apoptosis | 60% |  | only at the 50 μM concentration | concentration dependent increase | only at the 50 μM concentration | 28.4 ± 0.61 µM | 9% | 38% | 0.38 | 8% | 40% | 0.40
